Results from PMC6412891, “Synthesis and Biological Evaluation of Novel Thiazolyl-Coumarin Derivatives as Potent Histone Deacetylase Inhibitors with Antifibrotic Activity” (Molecules, 2019).

How the values were obtained:
HDAC1 human recombinant = target: T1, HDAC1 human recombinant (Homo sapiens, UniProt Q13547); test: HDAC1 inhibitory activity, fluorometric kit; format: biochemical; conditions: Class I
T1 construct: purchased Enzo Life Science BML-AK511

[1] = tested on: HDACs HeLa cells nuclear extract; test: HDAC inhibitory activity, fluorometric kit, HeLa cell nuclear extract; format: biochemical, human; conditions: HeLa cell nuclear extract as HDAC source
[2] = tested on: neonatal rat cardiac fibroblasts (CFs); test: FBS-induced cardiac fibroblast proliferation assay (Alamar Blue); format: cell-based; conditions: 10% FBS-induced CF proliferation, 48 h, read-out: Inhibition percentage of cell proliferation
Protocol: CFs were treated for 48 h with 10% fetal bovine serum (FBS), to induce CFs proliferation in presence/absence of each new CTz derivatives in a concentration range of 1–10 μM. In Table 4, the inhibition percentage of cell proliferation for each concentration of the synthesized compounds are shown. All derivatives inhibited CFs proliferation induce by serum.
Sprague Dawley rats were obtained from the Animal Breeding Facility of the School of Chemical and Pharmaceutical Sciences at the University of Chile. All studies followed the Guide for the Care and Use of Laboratory Animals published by the US National Institutes of Health (NIH Publication 8th, 2011), and experimental protocols were approved by the University of Chile Institutional Ethics Review Committee. CF were isolated from of 2 or 3–day–old Sprague-Dawley rats and cultured as described previously. Briefly, the neonatal rats were decapitated and their hearts were extracted under aseptic environment. Atria were removed and ventricles were cut into small pieces (~1–2 mm) for posterior colagenase II digestion. The digestion yield was separated by 10 min centrifugation at 89×g. The pellet was resuspended in 10 mL of Dulbecco’s Modified Eagle’s Medium/Nutrient F-12 (DMEM-F12) supplemented with 10% FBS and antibiotics (100 μg/mL streptomycin and 100 units/mL penicillin) and cultured in a humid atmosphere of 5% CO2 and 95% O2 at 37°C until confluence (5 days). The purity of the CFs population was assessed through the expression of several markers. CFs had positive staining against vimentin (Santa Cruz Biotechnology), while being negative against sarcomeric actin and desmin (Sigma-Aldrich). Experiments were performed on cells at passage 1. […]
To evaluate cytotoxicity, CFs were seeded in 12 microwell plates at a ratio of 2 × 10^4 cell/cm^2, cultured in DMEM–F12 medium + 10% FBS, which was subsequently replaced by DMEM–F12. After 24 h of serum starvation derivatives were applied at proper times and concentrations in accordance to experimental procedures. Cell viability assays were carried out using Alamar Blue®, a nontoxic, cell permeable non fluorescent compound that is blue in color. Viable cells reduce resazurin to resorufin, which produces very bright red fluorescence which is used as a quantitative cell viability measure. […] The fluorescence of Alamar Blue® was read using microplate reader at 570 excitation and emission to 595 nm. Cell survival was expressed as percentage over the untreated cells. […] Cell proliferation was quantified by Alamar Blue®, according to protocol mentioned before. Cell proliferation was expressed as percentage over the control FBS treated cells.

HDAC6 human recombinant = target: T2, HDAC6 human recombinant (Homo sapiens, UniProt Q9UBN7); test: HDAC6 inhibitory activity, fluorometric kit; format: biochemical; conditions: Class II
T2 construct: purchased Enzo Life Science BML-AK516
T2 sequence (Q9UBN7 1-1215): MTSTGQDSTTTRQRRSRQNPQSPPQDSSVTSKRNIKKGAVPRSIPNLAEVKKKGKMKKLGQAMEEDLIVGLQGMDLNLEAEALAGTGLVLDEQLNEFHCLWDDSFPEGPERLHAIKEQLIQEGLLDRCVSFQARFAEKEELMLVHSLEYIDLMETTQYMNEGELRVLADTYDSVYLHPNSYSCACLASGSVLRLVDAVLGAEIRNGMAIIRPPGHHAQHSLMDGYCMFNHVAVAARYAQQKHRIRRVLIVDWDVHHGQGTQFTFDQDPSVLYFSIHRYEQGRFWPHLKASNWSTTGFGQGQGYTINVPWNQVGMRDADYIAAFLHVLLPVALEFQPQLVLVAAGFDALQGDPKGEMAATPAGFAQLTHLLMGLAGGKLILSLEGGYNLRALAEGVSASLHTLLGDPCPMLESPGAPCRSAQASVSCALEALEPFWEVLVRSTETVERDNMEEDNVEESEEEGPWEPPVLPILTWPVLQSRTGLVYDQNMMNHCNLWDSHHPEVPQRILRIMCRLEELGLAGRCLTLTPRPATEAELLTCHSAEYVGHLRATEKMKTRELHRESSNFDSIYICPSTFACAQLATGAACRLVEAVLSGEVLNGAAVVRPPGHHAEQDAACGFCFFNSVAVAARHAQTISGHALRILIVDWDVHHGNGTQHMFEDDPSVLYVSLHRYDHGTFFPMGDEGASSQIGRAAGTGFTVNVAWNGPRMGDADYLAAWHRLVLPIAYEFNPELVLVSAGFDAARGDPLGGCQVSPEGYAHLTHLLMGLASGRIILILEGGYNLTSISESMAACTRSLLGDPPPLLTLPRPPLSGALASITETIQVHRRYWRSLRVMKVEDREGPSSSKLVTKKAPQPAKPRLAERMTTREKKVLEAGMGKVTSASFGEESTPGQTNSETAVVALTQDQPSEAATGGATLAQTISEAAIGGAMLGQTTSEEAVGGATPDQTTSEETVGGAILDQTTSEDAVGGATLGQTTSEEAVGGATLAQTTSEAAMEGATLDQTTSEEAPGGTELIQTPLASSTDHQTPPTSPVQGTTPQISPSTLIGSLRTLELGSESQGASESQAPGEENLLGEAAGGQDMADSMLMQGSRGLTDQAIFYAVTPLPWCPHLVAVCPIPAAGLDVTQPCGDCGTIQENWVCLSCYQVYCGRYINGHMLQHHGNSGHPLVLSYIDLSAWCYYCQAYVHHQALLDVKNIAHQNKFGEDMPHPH

[3] = Cytotoxicity assay (Alamar Blue) in cardiac fibroblasts; format: cell-based, rat; conditions: Sprague-Dawley, rat, primary neonatal rat cardiac fibroblasts (CFs), CFs treated for 48 h
Protocol: CFs were treated for 48 h with all the new CTz derivatives in a broad concentration range (100 μM^−1 mM), and their cytotoxicity was then evaluated. In Table 3 cytotoxic concentration 50 (CC50) values for each of the synthesized compounds are shown. […] When comparing the different ZBG the series 5 is the least cytotoxic for CFs, while series 8 was the most cytotoxic.
Sprague Dawley rats were obtained from the Animal Breeding Facility of the School of Chemical and Pharmaceutical Sciences at the University of Chile. All studies followed the Guide for the Care and Use of Laboratory Animals published by the US National Institutes of Health (NIH Publication 8th, 2011), and experimental protocols were approved by the University of Chile Institutional Ethics Review Committee. CF were isolated from of 2 or 3–day–old Sprague-Dawley rats and cultured as described previously. Briefly, the neonatal rats were decapitated and their hearts were extracted under aseptic environment. Atria were removed and ventricles were cut into small pieces (~1–2 mm) for posterior colagenase II digestion. The digestion yield was separated by 10 min centrifugation at 89×g. The pellet was resuspended in 10 mL of Dulbecco’s Modified Eagle’s Medium/Nutrient F-12 (DMEM-F12) supplemented with 10% FBS and antibiotics (100 μg/mL streptomycin and 100 units/mL penicillin) and cultured in a humid atmosphere of 5% CO2 and 95% O2 at 37°C until confluence (5 days). The purity of the CFs population was assessed through the expression of several markers. CFs had positive staining against vimentin (Santa Cruz Biotechnology), while being negative against sarcomeric actin and desmin (Sigma-Aldrich). Experiments were performed on cells at passage 1. Cells were cultured in 35-mm well plates and serum starved for 24 h prior to stimulation.
To evaluate cytotoxicity, CFs were seeded in 12 microwell plates at a ratio of 2 × 10^4 cell/cm^2, cultured in DMEM–F12 medium + 10% FBS, which was subsequently replaced by DMEM–F12. After 24 h of serum starvation derivatives were applied at proper times and concentrations in accordance to experimental procedures. Cell viability assays were carried out using Alamar Blue®, a nontoxic, cell permeable non fluorescent compound that is blue in color. Viable cells reduce resazurin to resorufin, which produces very bright red fluorescence which is used as a quantitative cell viability measure. 10 μL of 0.2 mg/mL Alamar Blue® was added into each well followed by incubation for 24 h. The fluorescence of Alamar Blue® was read using microplate reader at 570 excitation and emission to 595 nm. Cell survival was expressed as percentage over the untreated cells. To evaluate CFs proliferation assay, cells were seeded as mentioned before, and after serum starvation, they were stimulated by 10% fetal bovine serum (FBS), in presence/absence of CTz derivatives for […], at concentrations according to experiment. Cell proliferation was quantified by Alamar Blue®, according to protocol mentioned before. Cell proliferation was expressed as percentage over the control FBS treated cells.

[4] = tested on: procollagen type I expression in CFs; test: Procollagen type I expression levels in cardiac fibroblasts, western blot; format: cell-based, rat; conditions: derivatives 5 μM (TSA 0.1 μM) for 48 h in presence of TGF-β1
Protocol: In CFs collagen type I secretion is a hallmark of cardiac fibrosis development, which is regulated by HDACs. […] For this purpose, a fixed concentration of 5a, 6a, 7a and 8a derivatives in presence/absence of TGF-β1 were studied, and procollagen type I expression levels were measured by using the western blot technique. TSA was used as control and also for comparative purposes. In Figure 5 (A and B), in the upper panel representative photographs of procollagen type I expression level and GAPDH (used as charge control) are shown, whereas in the lower panel the graphic analyses are observed.
(§1) For the analysis of the protein expression of histone H4–acetylated (ac–H4) and total H4 histone, a number of 1 × 10^6 of CFs seeded in 60 mm plates was used, which were incubated with the inhibitory compounds at a concentration of 10 μM, in the absence/presence of TGF–β1(5ng/mL) for 4 h. Subsequently, total histones were extracted by the technique of saline precipitation (high salt extraction). Briefly, CFs were scraped from the plates with 1 mL of cold PBS transferring their contents to Eppendorf tubes to be centrifuged for 60 s at 1500 rpm at 4 °C and re–suspended in 400 μL of cold buffer A (10 mM 4-(2-hydroxyethyl)-1-piperazineethanesulfonic acid-KOH (HEPES-KOH) adjusted to pH 7.9, 1.5 mM MgCl2, 10 mM KCl, 0.5 mM dithiothreitol and 0.2 mM phenylmethylsulfonyl fluoride (PMSF). The suspension is left on ice for 10 min and then placed in the vortex for 10 s. The samples were centrifuged for 60 s, subsequently discarding the supernatant fraction. The obtained pellet was re-suspended in 60 μL of cold C buffer (20 mM HEPES-KOH adjusted to pH 7.9, 25% glycerol, 420 mM NaCl, 1.5 mM MgCl2, 0.2 mM EDTA, dithiothreitol 0.5 mM and 0.2 mM PMSF) and placed on ice for 20 min for saline precipitation. Cell debris is removed by centrifugation for 120 s at 1500 rpm at 4 °C and the supernatant fraction, which contains the DNA binding proteins, is stored at minus 20 °C. For the analysis of α–SMA and procollagen type I expression levels, 3×10^5 CFs seeded in 35 mm plates were used, which were incubated together with inhibitor compounds at a 5 μM, in the absence/presence of TGF–β1 (5 ng/mL) for 48 h. To obtain the total proteins, the CFs were washed three times with cold PBS, then scraped and lysed with 50 μL of radio inmuno-precipitation assay (RIPA) lysis buffer (10 mM Tris–HCl pH 7.2, 5 mM EDTA, 150 mM NaCl, Triton X–100 1%, sodium dodecyl sulfate (SDS) 0.1%, deoxycholate 1%, leupeptin 2 μg/mL, aprotinin 10mM, PMSF 1mM and Na3VO4 100μM). The solution was centrifuged for 15 min at 10,000 rpm and at 4 °C. The supernatant fraction containing the total proteins was stored at minus 20 °C. The concentration of proteins obtained was determined by spectrophotometry at 570 nm, using the Bradford method (Bio-Rad, Hercules, CA, USA).
(§2) CFs proteins (25 μg), were subjected to 10% sodium dodecyl sulfate-polyacrylamide gel electrophoresis and finally transferred onto a nitrocellulose membrane (Millipore, Billerica, MA, USA). The membrane was washed twice with tris–buffered saline solution containing 0.1% Tween 20 (TBST). After being blocked with TBST containing 5% nonfat milk for 40 min, the membrane was incubated with primary antibodies in TBST/1% nonfat milk at 4 °C overnight. The membrane was washed three times with TBST for a total of 15 min and then incubated with primary antibodies (ac–H4, H4 total, α-SMA, procollagen type I and GAPDH). Then the membrane was incubated with goat anti–rabbit or anti-mouse IgG antibodies conjugated with horseradish (diluted 1:1000) for 1 h at room temperature. Signals were developed with ECL reagents and exposure to photographic film.
Figure 5 CTz non–substituted inhibit procollagen type I expression levels in cardiac fibroblasts. […] (B) CFs were exposed to 5a, 6a, 7a and 8a at 5 μM for 48 h in presence of TGF–β1. Procollagen type I expression levels were measured by western blot. GAPDH was used as control load.

α-SMA expression in CFs = test: α-SMA expression levels in cardiac fibroblasts, western blot; format: cell-based, rat; conditions: derivatives 5 μM (TSA 0.1 μM) for 48 h in presence of TGF-β1
Protocol: For this purpose, a fixed concentration of 5a, 6a, 7a and 8a derivatives in the presence/absence of TGF–β1 (a strong inducer of CFs–to–CMFs differentiation), was studied, and α–SMA expression levels were measured by using the western blot technique. TSA was used as a control and also for comparative purposes.
as §1, §2
Figure 4 CTz non–substituted inhibit α-SMA expression in cardiac fibroblasts. (A) CFs were exposed to 5a, 6a, 7a and 8a at 5 μM for 48 h. […] (B) CFs were exposed to 5a, 6a, 7a and 8a at 5 μM for 48 h in presence of TGF–β1 ([…]). α-SMA expression levels were measured by western blot. GAPDH was used as control load.

T1 sequence (Q13547 whole entry): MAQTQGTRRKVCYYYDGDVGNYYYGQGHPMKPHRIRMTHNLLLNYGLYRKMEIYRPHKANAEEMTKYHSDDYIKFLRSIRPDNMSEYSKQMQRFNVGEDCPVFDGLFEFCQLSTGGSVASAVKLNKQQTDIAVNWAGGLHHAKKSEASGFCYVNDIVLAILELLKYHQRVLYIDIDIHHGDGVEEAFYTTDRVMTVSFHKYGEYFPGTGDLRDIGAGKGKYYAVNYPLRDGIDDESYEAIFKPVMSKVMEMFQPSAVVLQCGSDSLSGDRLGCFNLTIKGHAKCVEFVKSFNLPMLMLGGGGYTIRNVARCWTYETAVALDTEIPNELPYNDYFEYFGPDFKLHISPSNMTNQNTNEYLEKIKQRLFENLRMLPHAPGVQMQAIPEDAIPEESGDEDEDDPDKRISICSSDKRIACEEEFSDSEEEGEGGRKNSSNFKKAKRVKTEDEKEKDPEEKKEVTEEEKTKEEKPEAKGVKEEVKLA

IC50 (HDAC1 human recombinant)	melting point	IC50 [1]	IC50 (HDAC6 human recombinant)	SMILES	inhibition at 1 µM ([2]; 1 μM)	inhibition at 5 µM ([2]; 5 μM)	inhibition at 10 µM ([2]; 10 μM)	CC50 at 48 h [3]	procollagen type I expression levels induced by TGF-β1 [4]	α-SMA expression levels induced by TGF-β1 (α-SMA expression in CFs)
47.6 ± 2.3 nM	150 to 153 °C	62.1 ± 2.5 nM	123 ± 5.1 nM	O=C(CCCCC1CCSS1)Nc1nc(-c2cc3cc(Br)ccc3oc2=O)cs1 (centres unmarked) [Compound 5b, 5-[1,2]-Dithiolan-3-yl-N-[4-(6-bromo-2-oxo-2H-chromen-3-yl)-thiazol-2-yl]-pentanamide]	71.5 ± 3.8%	89.1 ± 9.5%	96.4 ± 4.7%	127000 ± 19200 nM	–	–
–	–	5 ± 0.12 nM	–	CC(/C=C/C(=O)NO)=C\[C@@H](C)C(=O)c1ccc(N(C)C)cc1 [TSA, trichostatin A, reference compound]	–	–	–	–	decreased, close to control levels	decrease close to control levels
